# Laboratory results from PMC9138505, “Small Molecule 20S Proteasome Enhancer Regulates MYC Protein Stability and Exhibits Antitumor Activity in Multiple Myeloma” (Biomedicines, 2022).
# Values joined by “and” are separate entries in the source; they are usually repeats but may differ in a detail not shown here. Identical values can stand only once.
# Experiments:
# c-MYC = c-MYC degradation ELISA in L363 cells; format: cell-based, human; details: various concentrations, 4 h
# Description: ELISA: c-MYC degradation in L363 and H929 cells. L363 cells were grown in T-25 flasks in RPMI-1640 medium supplemented with 15% heat-inactivated fetal bovine serum (FBS) and 1% penicillin/streptomycin at 37 °C and 5% CO2. H929 cells were grown in T-25 flasks in RPMI-1640 medium supplemented with 10% FBS, 0.05 mM 2-mercaptoethanol, and 1% penicillin/streptomycin. Cells were treated with DMSO, TCH-165, or bortezomib (BTZ) at the indicated concentrations for 4 h (0.1% final DMSO concentration). Following the 4-hour treatment, cells were pelleted, washed with chilled PBS buffer, and resuspended in chilled lysis buffer (10 mM Tris, 100 mM NaCl, 1 mM EDTA, 1 mM EGTA, 1 mM NaF, 20 mM Na4P2O7, 2 mM Na3VO4, 1% Triton X-100, 10% glycerol, 0.1% SDS, and 0.5% deoxycholate; pH 7.4) supplemented with Complete Mini Protease Inhibitor Cocktail (Sigma Aldrich). The lysate was clarified by centrifugation at 5000 rpm (4 °C) for 15 min. Total protein of the lysate was quantified by bicinchoninic acid assay (BCA assay, Thermofisher Scientific; Waltham, MA, USA). and normalized to 1.5 mg/mL total protein. The supplied protocol for the human c-MYC (Total) ELISA Kit (Invitrogen; Waltham, MA, USA) was used to determine the total c-MYC concentration of the lysates. Prior to loading lysate into ELISA plate wells, lysate (5 µL) was diluted into 45 µL of supplied standard diluent buffer.
# [1] = tested on: human constitutive 20S proteasome; design: method as in PMID 29897236; details: i.e., 1000%; cited from earlier work
# [2] = tested on: RPMI-8226 subcutaneous xenograft; assay: RPMI-8226 xenograft tumor model
structure (smiles),measurement,setting,value
CCOC(=O)[C@]1(c2ccccc2)N=C(c2ccc(OC)cc2)N(Cc2ccccc2)[C@@H]1c1ccc(NCc2ccccc2)cc1 [TCH-165],MYC clearance (percent MYC remaining),c-MYC,induced clearance of MYC
same,enhancement of 20S-mediated proteolysis,[1],~10 fold
same,reduction of tumor growth compared to vehicle control,"[2]; 100 mg/kg bid oral gavage, after 42 days, p < 0.05",75.71% and 76%
same,loss of body weight,"[2]; SCID mice, 100 mg/kg bid oral",< 10%
same,average tumor volume,"[2]; after 42 days, TCH-165 100 mg/kg bid oral, bortezomib 0.375 reduced to 0.09 mg/kg i.v. 3X per week",304.43 (±49.50) mm^3
